Measured values reported in patent US7071168B2, “Anti-cancer compounds and methods related thereto” (The Regents of the University of Colorado, priority 1998, dated 2006).

Columns and labels:
[1] = system: bradykinin response of isolated guinea pig ileum; experiment: Anti-bradykinin activity on isolated guinea pig ileum
Experimental: (§1) In general, Anti-bradykinin activity was determined by the classical guinea pig ileum assay and on Chinese hamster ovary (CHO) cells expressing cloned human bradykinin B2 receptors. Anti-tumor activity was determined on cultured human cancer cell lines using the standard tetrazolium (MTT) assay.
Male Hartley guinea pigs that had been deprived of food overnight were sacrificed, and sections of terminal ileum, 25 mm in length, were dissected, attached to tissue holders and immersed in 10 ml tissue baths containing Krebs' solution bubbled with 95% O2/5% CO2. Tissues were placed under 1 g tension and incubated for 1 h equilibration. Concentration-effect curves were constructed to bradykinin in the absence and presence of new compounds.

[2] = system: SCLC strain SHP-77; experiment: Colorimetric tetrazolium (MTT) assay for cell survival, SCLC strain SHP-77; assay type: cell-based, human
Experimental: as §1
Cell growth and survival were measured by a rapid colorimetric assay based on the tetrazolium salt MTT (3-(4,5-dimethylthiazol-2-yl)-2,5-diphenyl tetrazolium bromide) (Mosmann, J Immunol. Methods 65: 55–63, 1983, with minor modifications). Briefly, 1,000 normal lung fibroblasts or normal epithelial BEAS-2B cells, 1,000 or 5,000 viable non-SCLC cells or 10,000 viable SCLC cells were plated in 100 μL of growth medium in 96-well flat-bottomed microtiter plates. Cells were incubated overnight to allow recovery. Compounds to be tested were added to the cells in triplicate in a range of concentrations and the cells were incubated at 37° C., 5% CO2, with 100% humidity. Control cells were treated in the same way without antagonists. […] Plates were incubated for 4 days, allowing sufficient time for cell replication and compound-induced cell death to occur. On day 5, 25 μL of a 2 mg/mL solution of MTT (Sigma) dissolved in RMPI-1640was added to each well. The plate was incubated for 4 h at 37° C. The supernate was removed and the blue formazan complex was dissolved by adding 100 μL of 0.02 N HCl in 75% isopropanol to all wells. Absorbance was immediately determined using a scanning multiwell plate reader. B9870 caused 50% cell death at a concentration of 0.15 μM under these conditions.

[3] = Table 1, higher numbers indicate higher potency
[4] = isolated guinea pig ileum, pD2 of bradykinin is 7.4, higher numbers indicate higher potency

Compound | MTT: ED50 for killing of SCLC strain SHP-77 in vitro ([2]; Table 1, SHP-77, MTT, 4 days) | MTT: ED50 for killing of SCLC strain SHP-77 in vitro ([2]; SCLC strain SHP-77 in vitro) | further results
DDD-(DArg-Arg-Eac-Ser-DTic-Oic-Arg)2 [M794] | 21 µM | – | GPI: pA2 for bradykinin antagonist activity on isolated guinea pig ileum [1, 3]: Inact
O=C(NC1CN2CCC1CC2)C(NC(=NC1CCCCC1)NC1CCCCC1)C1Cc2ccccc2C1 (stereo not shown) [M12] | – | 20 µM | GPI: pA2 for bradykinin antagonist activity on isolated guinea pig ileum [1, 4]: 5.0
c[DArg-Arg-Aud-DF5F-Oic-Arg] [M868-2] | – | – | GPI: pA2 for bradykinin antagonist activity on isolated guinea pig ileum ([1]; Table 3, cyclic peptides): 6.1; MTT: ED50 for killing of SCLC strain SHP-77 in vitro ([2]; Table 3, cyclic peptides): 9.2 µM
SBEC-(DArg-Arg-Eac-Ser-DF5F-Nc7G-Arg)2 [M1028] | 28 µM | – | GPI: pA2 for bradykinin antagonist activity on isolated guinea pig ileum [1, 3]: 6.7
CCOC(=O)N1CCC(NC(=O)C(Cc2ccc3ccccc3c2)NC(=O)C=Cc2ccc(N)cc2)CC1 (stereo not shown) [M604] | – | 43 µM | GPI: pA2 for bradykinin antagonist activity on isolated guinea pig ileum [1, 4]: 4.5
DDD-(Pac-2Nal-DArg-NH2)2 [M504] | 11 µM | – | GPI: pA2 for bradykinin antagonist activity on isolated guinea pig ileum [1, 3]: 5.4
DDD-(DArg-Arg-Aud-PaF(F5c)-Arg)2 [M728] | 4 µM | – | GPI: pA2 for bradykinin antagonist activity on isolated guinea pig ileum [1, 3]: 5.3
DDD-(DArg-Arg-Aud-DIgl-PFF-Arg)2 [M842] | 1.4 µM | – | GPI: pA2 for bradykinin antagonist activity on isolated guinea pig ileum [1, 3]: Inact
Dcg-F5F-Arg [M130] | 20 µM | – | GPI: pA2 for bradykinin antagonist activity on isolated guinea pig ileum [1, 3]: 4.8
CC1(C)CC(NC(=O)C(Cc2ccc3ccccc3c2)NC(=O)C=Cc2ccc(N)cc2)CC(C)(C)N1 (stereo not shown) [M308] | – | >75 µM | GPI: pA2 for bradykinin antagonist activity on isolated guinea pig ileum [1, 4]: 5.0
Ava-Igl-Ser-DF5F-Oic-Arg [M806] | Inact | – | GPI: pA2 for bradykinin antagonist activity on isolated guinea pig ileum [1, 3]: 5.6
SUIM-(DArg-Arg-Pro-Hyp-Gly-Igl-Ser-DIgl-Oic-Arg-NH2)2 [B10082] | 0.7 µM | – | GPI: pA2 for bradykinin antagonist activity on isolated guinea pig ileum [1, 3]: 7.2
DDD-(DPhe-hPhe-Arg)2 [M756] | 18 µM | – | GPI: pA2 for bradykinin antagonist activity on isolated guinea pig ileum [1, 3]: 5.2
CN1CCN(NC(=O)[C@H](Cc2ccc3ccccc3c2)NC(=O)C=Cc2ccc(NC(=O)CCCCCCCCCCC(=O)O)cc2)CC1 [M480-1] | – | 45 µM | GPI: pA2 for bradykinin antagonist activity on isolated guinea pig ileum [1, 4]: 5.1
COC(=O)CCCCCCCCC(=O)Nc1ccc(C=CC(=O)NC(Cc2csc3ccccc23)C(=O)NC2CC(C)(C)NC(C)(C)C2)cc1 (stereo not shown) [M506] | – | 11 µM | GPI: pA2 for bradykinin antagonist activity on isolated guinea pig ileum [1, 4]: 4.9
EGS-(DArg-Arg-Eac-Ser-DF5F-Nc7G-Arg)2 [M1030] | 51 µM | – | GPI: pA2 for bradykinin antagonist activity on isolated guinea pig ileum [1, 3]: 7.0
c[DArg-Arg-Aud-DIgl-PFF-Arg] [M850] | – | – | GPI: pA2 for bradykinin antagonist activity on isolated guinea pig ileum ([1]; Table 3, cyclic peptides): 5.1; MTT: ED50 for killing of SCLC strain SHP-77 in vitro ([2]; Table 3, cyclic peptides): 1.4 µM
CC1(C)CC(NC(=O)C(Cc2ccc3ccccc3c2)NC(=O)OC(C)(C)C)CC(C)(C)N1 (stereo not shown) [M288] | – | Inact | GPI: pA2 for bradykinin antagonist activity on isolated guinea pig ileum [1, 4]: 5.2
CC1(C)CC(NC(=O)[C@@H](Cc2ccc3ccccc3c2)NC(=NC2CCCCC2)NC2CCCCC2)CC(C)(C)N1 [M246] | – | >50 µM | GPI: pA2 for bradykinin antagonist activity on isolated guinea pig ileum [1, 4]: 5.7

Compound | MTT: ED50 for killing of SCLC strain SHP-77 in vitro ([2]; Table 1, SHP-77, MTT, 4 days) | MTT: ED50 for killing of SCLC strain SHP-77 in vitro ([2]; SCLC strain SHP-77 in vitro) | further results
F5c-DArg-Arg-Add-Ser-DIgl-Oic-Arg [M860] | 6 µM | – | GPI: pA2 for bradykinin antagonist activity on isolated guinea pig ileum [1, 3]: 5.4
CN(C(=O)C(Cc1ccc(OCc2c(Cl)cccc2Cl)cc1)NC(=O)C=Cc1c(F)c(F)c(F)c(F)c1F)C1CC(C)(C)N(C)C(C)(C)C1 (stereo not shown) [M622] | – | 1.2 µM | GPI: pA2 for bradykinin antagonist activity on isolated guinea pig ileum [1, 4]: 5.7
F5c-DArg-Arg-Pro-Hyp-Gly-Igl-Ser-DIgl-Oic-Arg [B10238] | 150 µM | – | GPI: pA2 for bradykinin antagonist activity on isolated guinea pig ileum [1, 3]: 8.1
Cc1cc(NC(=O)c2cccc(NC(=O)CNC(=O)/C=C/c3cccnc3)c2)c2ccccc2n1 [M428] | – | >300 µM | –
F5bz-F5F-Arg [M132] | 60 µM | – | –
DDD-(Eac-Arg-Digl-Oic-Arg)2 [B10198-2] | 15 µM | – | –
DDD-(DArg-Arg-Eac-Ser-DF5F-PFF-Arg)2 [M944] | 6.7 µM | – | –
COC(=O)C(Cc1ccc(OCc2ccccc2)cc1)N(Cc1ccc(N(C)C)cc1)C(=O)C=Cc1c(F)c(F)c(F)c(F)c1F (stereo not shown) [M614] | – | 9.1 µM | –
α-DDD-(c[Lys-DArg-Arg-Pro-Hyp-Gly-Thi-Ser-DF5F-Oic-Arg])2 [B10312] | – | – | MTT: ED50 for killing of SCLC strain SHP-77 in vitro ([2]; Table 3, cyclic peptides): 3.8 µM
α-Lys-DArg-Arg-Pro-Hyp-Gly-Igl-Ser-DIgl-Oic-Arg Sub-Arg-DNMF-DTrp-Phe-DTrp-Leu [B9950] | 8 µM | – | –
Dca-hPhe-Arg [M542] | 80 µM | – | –
O=C(CCCCCCCCCCC(=O)N[C@@H](Cc1cccnc1)C(=O)N[C@@H](Cc1ccc2ccccc2c1)C(=O)NC1CCCCC1)N[C@@H](Cc1cccnc1)C(=O)N[C@@H](Cc1ccc2ccccc2c1)C(=O)NC1CCCCC1 [M460] | – | 15 µM | –
Dcg-Digl-Oic-Arg [B9490] | >60 µM | – | –
α-DDD-(K-DArg-Arg-Eac-Ser-DF5F-Oic-Arg)2 [M950] | 6.7 µM | – | –
Pac-hPhe-Arg [M752-2] | Inact | – | –
Aaa-DArg-Arg-Eac-Ser-D5F5-Oic-Arg [M954] | 10 µM | – | –
F5c-PCF-Arg [M714] | Inact | – | –
c[DArg-Arg-Eac-DF5F-Oic-Arg] [M906] | – | – | MTT: ED50 for killing of SCLC strain SHP-77 in vitro ([2]; Table 3, cyclic peptides): 45 µM
CC1(C)CC(NC(=O)[C@@H](NC(=N)CCCCCCCCCCCCC(=O)O)C2Cc3ccccc3C2)CC(C)(C)N1 [M280-1] | – | 21 µM | –

Compound | MTT: ED50 for killing of SCLC strain SHP-77 in vitro ([2]; Table 1, SHP-77, MTT, 4 days) | MTT: ED50 for killing of SCLC strain SHP-77 in vitro ([2]; SCLC strain SHP-77 in vitro) | further results
Aaa-DArg-Arg-Aud-Ser-D5F5-Oic-Arg [M956] | 14 µM | – | –
CC1(C)CC(NC(=O)C(Cc2ccc3ccccc3c2)NC(=O)CCCCCNC(=O)c2cc(C(=O)NCCCCCC(=O)NC(Cc3ccc4ccccc4c3)C(=O)NC3CC(C)(C)NC(C)(C)C3)cc(C(=O)NCCCCCC(=O)NC(Cc3ccc4ccccc4c3)C(=O)NC3CC(C)(C)NC(C)(C)C3)c2)CC(C)(C)N1 (stereo not shown) [M290-2] | – | 20 µM | –
CC1(C)CC(NC(=O)C(Cc2ccc(O)cc2)NC(=O)C=Cc2c(F)c(F)c(F)c(F)c2F)CC(C)(C)N1 (stereo not shown) [M316] | – | 50 µM | –
CCOC(=O)CN1C(C)(C)CC(NC(=O)C(Cc2ccc3ccccc3c2)NC(=O)C(C2CCCCC2)C2CCCCC2)CC1(C)C (stereo not shown) [M572] | – | 2.6 µM | –
DDD-(DArg-Arg-Aud-DIgl-hPhe-Arg)2 [M786] | 3.2 µM | – | –
Cin-hPhe-Arg [M706] | Inact | – | –
c[DArg-Arg Add-DIgl-PFF-Arg] [M878] | – | – | MTT: ED50 for killing of SCLC strain SHP-77 in vitro ([2]; Table 3, cyclic peptides): 7 µM
F5c-p-APa-Arg [M216] | >180 µM | – | –
F5bz-DArg-Arg-Aud-Ser-D5F5-Oic-Arg [M958] | 18 µM | – | –
F5c-DArg-Arg-Aud-Pac-2Nal-Arg [M698] | 7.1 µM | – | –
DDD-(DArg-hPhe-Arg-NH2)2 [M560] | 50 µM | – | –
c[Arg-DNMF-DTrp-Phe-DTrp-Leu] [B10306] | – | – | MTT: ED50 for killing of SCLC strain SHP-77 in vitro ([2]; Table 3, cyclic peptides): Inact
Aaa-Ser-Pac-hPhe-Arg [M752-5] | Inact | – | –
CC1(C)CC(NC(=O)C(NC(=O)C=Cc2ccc(N)cc2)C2Cc3ccccc3C2)CC(C)(C)N1 (stereo not shown) [M292] | – | 40 µM | –
O=C(C=Cc1c(F)c(F)c(F)c(F)c1F)NC(Cc1ccc2ccccc2c1)C(=O)NCc1cccnc1 (stereo not shown) [M466] | – | Inact | –
CN(C)CCCNC(=O)[C@H](Cc1ccc2ccccc2c1)NC(=O)C=Cc1ccc(NC(=O)CCCCCCCCCCC(=O)Nc2ccc(C=CC(=O)N[C@@H](Cc3ccc4ccccc4c3)C(=O)NCCCN(C)C)cc2)cc1 [M538] | – | >80 µM | –
DDD-(DArg-PFF-Arg-NH2)2 [M818] | 60 µM | – | –
DArg-Arg-Aud-DIgl-PFF-Arg [M844] | 12 µM | – | –
Aca-DArg-Arg-Aud-Ser-D5F5-Oic-Arg [M960] | 21 µM | – | –
